From US12331058B2, “SHP2 and CDK4/6 dual-target inhibitory compound and pharmaceutical composition containing the same” (CHINA PHARMACEUTICAL UNIVERSITY, priority 2021, dated 2025)
pIC50: −log10 of the molar value. Like-named read-outs stand apart in the source and are kept apart here.

Legend:
CDK4 = CDK4 (Homo sapiens, UniProt P11802); experiment: CDK4 enzyme activity test in vitro; assay type: biochemical; conditions: Caliper EZ Reader II conversion
Procedure: CDK4 Enzyme Activity Test In Vitro
(§7) The compound is dissolved in 100% DMSO to prepare into a 30 mM storage solution, which is stored in −20° C. refrigerator in the dark.
(1) 1×Kinase buffer is prepared.
(2) The preparation of concentration gradient of the compound: tested compound is tested at an initial concentration of 30000 nM according to a customer's request, diluted into a 100% DMSO solution at a 100-fold final concentration in a 384 source plate, diluted by 3-fold with 10 concentrations, 250 nL of compound with a 100-fold final concentration is transferred to the target plate of 384-well-plate by using a dispenser Echo 550.
(3) A Kinase solution with a 2.5-fold final concentration is prepared by using a 1×Kinase buffer.
(4) 10 μL of kinase solution with a 2.5-fold final concentration is added to the compound wells and the positive control wells, respectively; 10 μL of 1×Kinase buffer is added to the negative control wells.
(5) The kinase solution is centrifugated at 1000 rpm for 30 seconds, and incubated at the room temperature for 10 minutes after the reaction plate is shaken and mixed uniformly.
(7) The reaction is initiated by adding 15 μL of the mixed solution of ATP and substrate at a 5/3-fold final concentration.
(8) The 384-well plate is centrifuged at 1000 rpm for 30 seconds, and incubated at the room temperature for 180 minutes after shaking and mixing uniformly.
(9) The kinase reaction is terminated by adding 30 μL of termination detection solution, centrifuged at 1000 rpm for 30 seconds with shaking and mixing uniformly.
(10) The conversion is read by using Caliper EZ Reader II.
Calculation Formula is as follows:
Conversion %_sample denotes a conversion reading of the sample; Conversion % min denotes an average value for negative control wells, represents a conversion reading without enzyme wells; Convesion %_max denotes an average value for positive control wells, represents a conversion reading without compound inhibition wells.

SHP2 = molecular target: T1, SHP2 (Homo sapiens, UniProt Q06124); experiment: SHP2 enzyme activity test in vitro;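 also: IC50 derived by variable-slope curve fitting of percent inhibition of SHP2 enzymatic activity plotted against log compound concentration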
T1 sequence (Q06124 1-593): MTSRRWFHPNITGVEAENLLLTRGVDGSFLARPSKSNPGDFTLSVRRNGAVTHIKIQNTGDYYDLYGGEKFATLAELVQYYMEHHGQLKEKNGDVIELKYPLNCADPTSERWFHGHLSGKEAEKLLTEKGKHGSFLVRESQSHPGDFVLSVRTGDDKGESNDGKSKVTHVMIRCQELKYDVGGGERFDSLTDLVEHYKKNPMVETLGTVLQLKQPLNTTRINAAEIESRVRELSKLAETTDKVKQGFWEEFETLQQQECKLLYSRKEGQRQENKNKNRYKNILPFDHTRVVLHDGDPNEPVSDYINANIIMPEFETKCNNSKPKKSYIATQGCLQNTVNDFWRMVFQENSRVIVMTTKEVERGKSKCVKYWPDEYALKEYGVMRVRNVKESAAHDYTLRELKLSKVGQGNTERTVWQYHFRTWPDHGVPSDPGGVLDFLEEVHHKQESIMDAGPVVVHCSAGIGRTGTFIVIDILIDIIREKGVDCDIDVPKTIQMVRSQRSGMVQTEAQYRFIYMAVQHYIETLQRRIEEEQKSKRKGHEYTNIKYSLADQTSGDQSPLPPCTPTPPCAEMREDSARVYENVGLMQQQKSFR
Procedure: SHP2 Enzyme Activity Test In Vitro
SHP2 enzyme activity of the compounds in the above examples are tested as follows.
as §7
The log value for concentration is taken as X-axis and the percent inhibition is taken as Y-axis, and the log (inhibitor) vs. response variable slope of the analysis software GraphPad Prism 5 is used to fit the dose-response curve to obtain the IC50 values for each compound on enzyme activity.

MDA-MB-231 cells [1] = experiment: In vitro antiproliferative activity (MTT), MDA-MB-231; assay type: cell-based; conditions: Homo sapiens, MDA-MB-231, 72 h, 3 days of incubation
Procedure: (§1) In Vitro Antiproliferative Activity of Compound 1. Experimental Procedure
(§2) (4) MDA-MB-231, MDA-MB-468 or EMT6 cells are taken out of a liquid nitrogen tank, immediately placed in a constant temperature water bath at 37° C. and melted by shaking, then the cells are poured into a culture flask. The culture solution (containing 10% of fetal bovine serum) is added for dilution. The diluted culture medium is transferred into a centrifuge tube, centrifuged at 1000 r/min for 5 minutes. The supernatant is discarded and fresh culture medium is added for blowing and mixing uniformly. The mixture is transferred into a culture bottle, and cultured in a culture box with a concentration of 5% CO2 at 37° C. When the cells are adhered to the wall and almost fully paved at the bottle bottom, the passage begins. A little amount of fresh culture medium (containing 10% of fetal calf serum) is added to terminate the digestion. The liquid in the culture bottle is poured out, and the culture bottle is washed twice with PBS. The fresh culture medium is added to blow and mix uniformly, and divided evenly into two culture bottles for continuing the culture.
(§3) (5) Cells in the logarithmic phase are taken, and the old culture medium are poured out. The trypsin solution is added for digestion for 3 minutes, and the fresh culture medium containing 10% of fetal bovine serum is added for terminating digestion. The solution is transferred into a centrifuge tube, centrifuged at 1000 r/min for 5 minutes, and the supernatant is discarded. The cells are counted by adding a medium to prepare into a cell suspension. After counting, cells are seeded in 96-well plates at a cell concentration of 5000-10000 cells per well. The 96-well plate with the spread cells is placed in a 5% CO2 incubator at 37° C. for a continuous culture for 24 hours. The drugs are diluted in gradient to 90μ mol/L, 30μ mol/L, 10μ mol/L, […], 0.37μ mol/L with medium and then added to 96-well plates at 100 μL per well, with three multiplex wells per concentration. The control group is added with medium containing solvent with the corresponding concentration, the zeroing hole is added with blank medium with the same volume, and the blank medium is placed in a culture box with 5% CO2 and 37° C. for 3 days of incubation with a replacement of the medium every two days. 20 μL of MTT (5 mg/mL) is added to each well. After mixing uniformly, the mixture is incubated in a 5% CO2 incubator at 37° C. for 4 hours in the absence of light. With a removement of the liquid in the 96-well plate and an addition of 150 μl of DMSO to each well, the mixture is placed on a micro-shaker and shaken to completely dissolve the crystals at the bottom. Subsequently, the 96-well plate is placed in an microplate reader for detection and the absorbance is measured at 490 nm.
(§4) Curve is drawn and inhibition rate of drug to cell and IC50 are calculated. Inhibition ratio=[(average OD value for control group-average OD value for experimental group)/(average OD value for control group-average OD value for blank control group)]×100%. 3. Experimental Results
(§5) The inhibitory activities of the compounds on MDA-MB-231, MDA-MB-468 and EMT6 cell lines are as follows: […]

MDA-MB-468 cells [2] = experiment: In vitro antiproliferative activity (MTT), MDA-MB-468; assay type: cell-based; conditions: Homo sapiens, MDA-MB-468, 72 h, 3 days of incubation
Procedure: as §1, §2, §3, §4, §5

EMT6 cells = experiment: In vitro antiproliferative activity (MTT), EMT6; assay type: cell-based; conditions: Mus musculus, EMT6, 72 h, 3 days of incubation
Procedure: as §1, §2, §3, §4, §5

SHP2 and CDK4/6 = experiment: In vitro enzyme activity and antiproliferative activity tests (summary statement)
MDA-MB-231 cells [3] = experiment: Cell cycle experiment (PI flow cytometry), MDA-MB-231; assay type: cell-based; conditions: MDA-MB-231, 48 hours, compared with TNO155, Abemaciclib and their combination
Procedure: (§6) Cells are washed once with PBS and 1 mL of trypsin without EDTA (0.25%) is added. When cells change round and part of the cells are suspended, the digestion is terminated by adding PBS, subsequently, the cells are harvested and fixed in 70% ethanol (500 μL) at 4° C. for 24 hours. Cells are collected by washing with PBS and centrifuged at 1500 rpm for 5 minutes, then stained with PI/RNase in the dark at the room temperature for 30 minutes-60 minutes. After incubation, the cells are analyzed by flow cytometry. All experiments are performed 3 times.

MDA-MB-468 cells [4] = experiment: Cell cycle experiment (PI flow cytometry), MDA-MB-468; assay type: cell-based; conditions: MDA-MB-468, 48 hours, compared with TNO155, Abemaciclib and their combination
Procedure: as §6

CDK4, sequence (P11802 whole entry): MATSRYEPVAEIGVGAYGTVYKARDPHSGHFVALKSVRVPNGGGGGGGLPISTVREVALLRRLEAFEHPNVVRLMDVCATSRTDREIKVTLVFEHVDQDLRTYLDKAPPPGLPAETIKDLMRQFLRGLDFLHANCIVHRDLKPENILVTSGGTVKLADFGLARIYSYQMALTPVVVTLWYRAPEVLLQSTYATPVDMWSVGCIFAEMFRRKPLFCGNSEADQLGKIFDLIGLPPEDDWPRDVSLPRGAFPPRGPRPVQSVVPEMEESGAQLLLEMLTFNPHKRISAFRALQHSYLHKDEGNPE
CDK4, sequence (P30281 whole entry partner): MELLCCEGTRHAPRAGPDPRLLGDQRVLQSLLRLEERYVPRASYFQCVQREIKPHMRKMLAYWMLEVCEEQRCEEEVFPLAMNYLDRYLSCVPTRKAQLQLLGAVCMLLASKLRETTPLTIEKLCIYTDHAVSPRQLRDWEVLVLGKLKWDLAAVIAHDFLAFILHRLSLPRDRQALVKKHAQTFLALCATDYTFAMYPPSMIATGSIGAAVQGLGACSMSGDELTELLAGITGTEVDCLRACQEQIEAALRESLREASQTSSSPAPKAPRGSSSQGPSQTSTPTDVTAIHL

Compound	pIC50 (CDK4)	pIC50 (SHP2)	IC50 (MDA-MB-231 cells [1])	IC50 (MDA-MB-468 cells [2])	IC50 (EMT6 cells)	other results
Cc1nc2c(F)cc(-c3nc(Nc4cc(Cl)c(Sc5cnc(N6CCC7(CC6)CO[C@@H](C)[C@H]7N)cn5)cn4)ncc3F)cc2n1C(C)C [Compound 21]	8.05	< 6.00	–	–	–	–
CN(C)C(=O)c1cc2cnc(Nc3ccc(Sc4cnc(N5CCC(C)(N)CC5)cn4)c(Cl)n3)nc2n1C1CCCC1 [Compound 16]	–	< 6.00	–	–	–	–
CN(C)C(=O)c1cc2cnc(Nc3ccc(Sc4cnc(N5CCC6(CC5)Cc5ccccc5[C@H]6N)cn4)c(Cl)c3)nc2n1C1CCCC1 [Compound 3]	< 6.00	7.24	–	–	–	–
Cc1nc2c(F)cc(-c3nc(Nc4nccc(Sc5cnc(N6CCC7(CC6)CO[C@@H](C)[C@H]7N)cn5)c4C#N)ncc3F)cc2n1C(C)C [Compound 19]	8.52	8.05	9.6 µM	3.7 µM	0.7 µM	double-target inhibition activity (SHP2 and CDK4/6): better double-target inhibition activity
Cc1nc2c(F)cc(-c3nc(Nc4nccc(Sc5cnc(N6CCC7(CC6)CO[C@@H](C)[C@H]7N)cn5)c4Cl)ncc3F)cc2n1C(C)C [Compound 14]	7.72	8.30	6.4 µM	1.8 µM	0.6 µM	G0/G1 phase arrest (MDA-MB-231 cells [3]): better cycle G0/G1 phase arrest; G0/G1 phase arrest (MDA-MB-468 cells [4]): better cycle G0/G1 phase arrest; double-target inhibition activity (SHP2 and CDK4/6): better double-target inhibition activity
Cc1nc2c(F)cc(-c3nc(Nc4ccc(Sc5cnc(N6CCC7(CC6)CO[C@@H](C)[C@H]7N)cn5)c(Cl)c4)ncc3F)cc2n1C(C)C [Compound 23]	–	–	3.2 µM	10.5 µM	1.7 µM	double-target inhibition activity (SHP2 and CDK4/6): better double-target inhibition activity; pIC50 (SHP2; read-out: SHP2 IC50, fluorescence Ex355/Em460, activation peptide): 7.21
Cc1nc2c(F)cc(-c3nc(Nc4ccc(Sc5cnc(N6CCC7(CC6)Cc6ccccc6[C@H]7N)cn5)c(Cl)n4)ncc3F)cc2n1C(C)C [Compound 24]	< 6.00	< 6.00	–	–	–	–
CN(C)C(=O)c1cc2cnc(Sc3cnc(N4CCC(C)(N)CC4)cn3)cc2n1C1CCCC1 [Compound 1]	< 6.00	< 6.00	–	–	–	–
Cc1nc2c(F)cc(-c3nc(Nc4ccc(Sc5cnc(N6CCC7(CC6)CO[C@@H](C)[C@H]7N)cn5)c(C#N)n4)ncc3F)cc2n1C(C)C [Compound 12]	6.85	< 6.00	–	–	–	–
Cc1nc2c(F)cc(-c3nc(Nc4cc(Sc5cnc(N6CCC7(CC6)CO[C@@H](C)[C@H]7N)cn5)c(Cl)cn4)ncc3F)cc2n1C(C)C [Compound 17]	< 6.00	< 6.00	–	–	–	–
CN(C)C(=O)c1cc2cnc(N(c3ncc4cc(C(=O)N(C)C)n(C5CCCC5)c4n3)c3nccc(Sc4cnc(N5CC[C@H](N)c6ccccc6C5)cn4)c3Cl)nc2n1C1CCCC1 [Compound 7]	< 6.00	< 6.00	–	–	–	–
CN(C)C(=O)c1cc2cnc(Nc3nccc(Sc4cnc(N5CCN([C@H]6Cc7ccccc7[C@H]6N)CC5)cn4)c3Cl)nc2n1C1CCCC1 [Compound 8]	6.04	< 6.00	–	–	–	–
CCN1CCN(Cc2ccc(Nc3ncc(F)c(-c4cc(F)c5nc(C)n(C(C)C)c5c4)n3)nc2)CC1 [Abemaciclib, reference compound]	–	–	> 20 µM	> 20 µM	4.2 µM	–
CN(C)C(=O)c1cc2cnc(Nc3nccc(Sc4cnc(N5CCC(C)(N)CC5)cn4)c3Cl)nc2n1C1CCCC1 [Compound 4]	6.36	7.52	–	–	–	–
Cc1nc2c(F)cc(-c3nc(Nc4ccc(Sc5cnc(N6CCC(C)(N)CC6)cn5)c(C#N)n4)ncc3F)cc2n1C(C)C [Compound 11]	7.51	< 6.00	–	–	–	–
CN(C)C(=O)c1cc2cnc(Nc3ccc(Sc4cnc(N5CCC(C)(N)CC5)cn4)cn3)nc2n1C1CCCC1 [Compound 2]	8.05	< 6.00	–	–	–	–
Cc1nc2c(F)cc(-c3nc(Nc4cnc(Sc5cnc(N6CCC7(CC6)CO[C@@H](C)[C@H]7N)cn5)c(Cl)c4)ncc3F)cc2n1C(C)C [Compound 13]	7.96	6.67	–	–	–	–
CN(C)C(=O)c1cc2cnc(Nc3nccc(Sc4cnc(N5CCC6(CC5)Cc5ccccc5[C@H]6N)cn4)c3Cl)nc2n1C1CCCC1 [Compound 5]	< 6.00	8.40	–	–	–	–
Cc1nc2c(F)cc(-c3nc(Nc4ccc(Sc5cnc(N6CCC7(CC6)CO[C@@H](C)[C@H]7N)cn5)c(Cl)n4)ncc3F)cc2n1C(C)C [Compound 15]	6.84	< 6.00	–	–	–	–
Cc1nc2c(F)cc(-c3nc(Nc4cc(Sc5cnc(N6CCC7(CC6)CO[C@@H](C)[C@H]7N)cn5)ccn4)ncc3F)cc2n1C(C)C [Compound 26]	7.77	7.32	5.1 µM	9.6 µM	1.1 µM	double-target inhibition activity (SHP2 and CDK4/6): better double-target inhibition activity
Cc1nc2c(F)cc(-c3nc(Nc4cccc(Sc5cnc(N6CCC7(CC6)CO[C@@H](C)[C@H]7N)cn5)c4Cl)ncc3F)cc2n1C(C)C [Compound 25]	8.10	7.82	4.6 µM	9.1 µM	0.6 µM	double-target inhibition activity (SHP2 and CDK4/6): better double-target inhibition activity
CN(C)C(=O)c1cc2cnc(Nc3nccc(Sc4cnc(N5CC[C@H](N)c6ccccc6C5)cn4)c3Cl)nc2n1C1CCCC1 [Compound 6]	< 6.00	6.13	–	–	–	–
Cc1nc2c(F)cc(-c3nc(Nc4ccc(Cl)c(Sc5cnc(N6CCC7(CC6)CO[C@@H](C)[C@H]7N)cn5)n4)ncc3F)cc2n1C(C)C [Compound 20]	6.91	6.22	–	–	–	–
CN(C)C(=O)c1cc2cnc(Nc3ccc(Sc4cnc(N5CCC6(CC5)Cc5ccccc5[C@H]6N)cn4)c(Cl)n3)nc2n1C1CCCC1 [Compound 9]	6.27	7.44	–	–	–	–
Cc1nc2c(F)cc(-c3nc(Nc4nccc(Sc5cnc(N6CCC7(CC6)Cc6ccccc6[C@H]7N)cn5)c4Cl)ncc3F)cc2n1C(C)C [Compound 10]	–	8.00	4.4 µM	5.9 µM	1.1 µM	double-target inhibition activity (SHP2 and CDK4/6): better double-target inhibition activity
C[C@@H]1OCC2(CCN(c3cnc(Sc4ccnc(N)c4Cl)c(N)n3)CC2)[C@@H]1N [TNO155, reference compound]	–	–	> 20 µM	> 20 µM	7 µM	–
